Data as given in patent US10597388B2, “Pyridazinone herbicides” (FMC CORPORATION, priority 2014, dated 2020).

Key:
Assay in all cases: Test D controlled growth environment herbicide test, pre- and postemergence
Type in all cases: in vivo
[1] = test system: canarygrass (Phalaris minor)
Excerpt: (§1) Seeds of plant species selected from bluegrass (annual bluegrass, Poa annua), blackgrass (Alopecurus myosuroides), Canada thistle (Cirsium arvense), canarygrass (Phalaris minor), chickweed (common chickweed, Stellaria media), geranium, cutleaf (cutleaf geranium, Geranium dissectum), galium (catchweed bedstraw, Galium aparine), bromegrass, downy (downy bromegrass, Bromus tectorum), field poppy (Papaver rhoeas), field violet (Viola arvensis), foxtail, green (green foxtail, Setaria viridis), deadnettle (henbit deadnettle, Lamium amplexicaule), ryegrass, Italian (Italian ryegrass, Lolium multiflorum), kochia (Kochia scoparia), lambsquarters (Chenopodium album), oilseed rape (Brassica napus), pigweed (Amaranthus retroflexus), chamomile (scentless chamomile, Matricaria inodora), Russian thistle (Salsola kali), speedwell (bird's-eye speedwell, Veronica persica), barley, spring (spring barley, Hordeum vulgare), wheat, spring (spring wheat, Triticum aestivum), buckwheat, wild (wild buckwheat, Polygonum convolvulus), mustard, wild (wild mustard, Sinapis arvensis), oat, wild (wild oat, Avena fatua), radish, wild (wild radish, Raphanus raphanistrum), windgrass (Apera spica-venti), barley, winter (winter barley, Hordeum vulgare), and wheat, winter (winter wheat, Triticum aestivum) were planted into a silt loam soil and treated preemergence with test chemicals formulated in a non-phytotoxic solvent mixture which included a surfactant.
(§2) At the same time, these species were planted in pots containing Redi-Earth® planting medium (Scotts Company, 14111 Scottslawn Road, Marysville, Ohio 43041) comprising spaghnum peat moss, vermiculite, wetting agent and starter nutrients and treated with postemergence applications of the test chemicals formulated in the same manner. Plants ranged in height from 2 to 18 cm (1- to 4-leaf stage). Treated plants and controls were maintained in a controlled growth environment for 14 to 21 d after which time all species were compared to controls and visually evaluated. Plant response ratings, summarized in Table D, are based on a scale of 0 to 100 where 0 is no effect and 100 is complete control. A dash (-) response means no test result.

[2] = test system: buckwheat, wild (wild buckwheat, Polygonum convolvulus)
Excerpt: as §1, §2

[3] = test system: windgrass (Apera spica-venti)
Excerpt: as §1, §2

[4] = test system: ryegrass, Italian (Italian ryegrass, Lolium multiflorum)
Excerpt: as §1, §2

[5] = test system: oilseed rape (Brassica napus)
Excerpt: as §1, §2

[6] = test system: wheat, spring (spring wheat, Triticum aestivum)
Excerpt: as §1, §2

[7] = test system: speedwell (bird's-eye speedwell, Veronica persica)
Excerpt: as §1, §2

[8] = test system: barley, spring (spring barley, Hordeum vulgare)
Excerpt: as §1, §2

[9] = test system: field poppy (Papaver rhoeas)
Excerpt: as §1, §2

[10] = test system: deadnettle (henbit deadnettle, Lamium amplexicaule)
Excerpt: as §1, §2

[11] = test system: oat, wild (wild oat, Avena fatua)
Excerpt: as §1, §2

[12] = test system: radish, wild (wild radish, Raphanus raphanistrum)
Excerpt: as §1, §2

[13] = Postemergence, 31 g ai/ha, scale 0 to 100 (0 no effect, 100 complete control)
[14] = Postemergence, 125 g ai/ha, visual rating on scale 0 (no effect) to 100 (complete control), 14 to 21 d
[15] = Postemergence, 250 g ai/ha, scale 0 to 100 (0 no effect, 100 complete control)
[16] = Preemergence, 62 g ai/ha, scale 0 to 100 (0 no effect, 100 complete control)
[17] = Preemergence, 125 g ai/ha, scale 0 to 100 (0 no effect, 100 complete control)
[18] = Preemergence, 250 g ai/ha, scale 0 to 100, 0 no effect, 100 complete control
[19] = postemergence, 62 g ai/ha, scale 0 to 100, 0 no effect, 100 complete control

## Cc1nn(C)c(=O)c(-c2cccc3ccccc23)c1O [Compound 11, 5-hydroxy-2,6-dimethyl-4-(1-naphthalenyl)-3(2H)-pyridazinone]
[1]; [13]
  Canarygrass plant response rating: 10
[1]; [14]
  Plant response rating, Canarygrass: 30
[1]; [15]
  Plant response rating, Canarygrass: 55
[1]; Preemergence, 31 g ai/ha
  Plant response rating (scale of 0 to 100), Canarygrass: 45
[1]; [16]
  Plant response rating, Canarygrass: 55
[1]; [17]
  Plant response rating, Canarygrass: 90
[1]; [18]
  Plant response rating, Canarygrass: 90
[1]; [19]
  Plant response rating, Canarygrass: 20
[2]; [13]
  Buckwheat, Wild plant response rating: 45
[2]; [14]
  Plant response rating, Buckwheat, Wild: 60
[2]; [15]
  Plant response rating, Buckwheat, Wild: 95
[2]; Preemergence, 31 g ai/ha
  Plant response rating (scale of 0 to 100), Buckwheat, Wild: 20
[2]; [16]
  Plant response rating, Buckwheat, Wild: 15
[2]; [17]
  Plant response rating, Buckwheat, Wild: 15
[2]; [18]
  Plant response rating, Buckwheat, Wild: 25
[2]; [19]
  Plant response rating, Buckwheat, Wild: 45
[3]; [13]
  Windgrass plant response rating: 10
[3]; [14]
  Plant response rating, Windgrass: 15
[3]; [15]
  Plant response rating, Windgrass: 20
[3]; Preemergence, 31 g ai/ha
  Plant response rating (scale of 0 to 100), Windgrass: 25
[3]; [16]
  Plant response rating, Windgrass: 35
[3]; [17]
  Plant response rating, Windgrass: 55
[3]; [18]
  Plant response rating, Windgrass: 75
[3]; [19]
  Plant response rating, Windgrass: 10
[4]; [13]
  Ryegrass, Italian plant response rating: 80
[4]; [14]
  Plant response rating, Ryegrass, Italian: 85
[4]; [15]
  Plant response rating, Ryegrass, Italian: 90
[4]; Preemergence, 31 g ai/ha
  Plant response rating (scale of 0 to 100), Ryegrass, Italian: 85
[4]; [16]
  Plant response rating, Ryegrass, Italian: 90
[4]; [17]
  Plant response rating, Ryegrass, Italian: 100
[4]; [18]
  Plant response rating, Ryegrass, Italian: 100
[4]; [19]
  Plant response rating, Ryegrass, Italian: 85
[5]; [13]
  Oilseed Rape plant response rating: 0
[5]; [14]
  Plant response rating, Oilseed Rape: 20
[5]; [15]
  Plant response rating, Oilseed Rape: 55
[5]; Preemergence, 31 g ai/ha
  Plant response rating (scale of 0 to 100), Oilseed Rape: 5
[5]; [16]
  Plant response rating, Oilseed Rape: 0
[5]; [17]
  Plant response rating, Oilseed Rape: 5
[5]; [18]
  Plant response rating, Oilseed Rape: 5
[5]; [19]
  Plant response rating, Oilseed Rape: 15
[6]; [13]
  Wheat, Spring plant response rating: 15
[6]; [14]
  Plant response rating, Wheat, Spring: 25
[6]; [15]
  Plant response rating, Wheat, Spring: 25
[6]; Preemergence, 31 g ai/ha
  Plant response rating (scale of 0 to 100), Wheat, Spring: 5
[6]; [16]
  Plant response rating, Wheat, Spring: 15
[6]; [17]
  Plant response rating, Wheat, Spring: 25
[6]; [18]
  Plant response rating, Wheat, Spring: 35
[6]; [19]
  Plant response rating, Wheat, Spring: 15
[7]; [13]
  Speedwell plant response rating: 0
[7]; [14]
  Plant response rating, Speedwell: 100
[7]; [15]
  Plant response rating, Speedwell: 100
[7]; Preemergence, 31 g ai/ha
  Plant response rating (scale of 0 to 100), Speedwell: 0
[7]; [16]
  Plant response rating, Speedwell: 15
[7]; [17]
  Plant response rating, Speedwell: 85
[7]; [18]
  Plant response rating, Speedwell: 100
[7]; [19]
  Plant response rating, Speedwell: 100
[8]; [13]
  Plant response rating, Barley, Spring: 0
[8]; [14]
  Plant response rating, Barley, Spring: 10
[8]; [15]
  Plant response rating, Barley, Spring: 10
[8]; Preemergence, 31 g ai/ha
  Plant response rating (scale of 0 to 100), Barley, Spring: 5
[8]; [16]
  Plant response rating, Barley, Spring: 5
[8]; [17]
  Plant response rating, Barley, Spring: 10
[8]; [18]
  Barley, Spring plant response rating: 15
[8]; [19]
  Plant response rating, Barley, Spring: 0
[9]; [13]
  Field Poppy plant response rating: 35
[9]; [14]
  Plant response rating, Field Poppy: 80
[9]; [15]
  Plant response rating, Field Poppy: 100
[9]; Preemergence, 31 g ai/ha
  Plant response rating (scale of 0 to 100), Field Poppy: 75
[9]; [16]
  Plant response rating, Field Poppy: 75
[9]; [17]
  Plant response rating, Field Poppy: 100
[9]; [18]
  Plant response rating, Field Poppy: 100
[9]; [19]
  Plant response rating, Field Poppy: 85
[10]; [13]
  Deadnettle plant response rating: 75
[10]; [14]
  Plant response rating, Deadnettle: 100
[10]; [15]
  Plant response rating, Deadnettle: 100
[10]; Preemergence, 31 g ai/ha
  Plant response rating (scale of 0 to 100), Deadnettle: 10
[10]; [16]
  Plant response rating, Deadnettle: 15
[10]; [17]
  Plant response rating, Deadnettle: 50
[10]; [18]
  Plant response rating, Deadnettle: 100
[10]; [19]
  Plant response rating, Deadnettle: 100
[11]; [13]
  Oat, Wild plant response rating: 40
[11]; [14]
  Plant response rating, Oat, Wild: 85
[11]; [15]
  Plant response rating, Oat, Wild: 98
[11]; Preemergence, 31 g ai/ha
  Plant response rating (scale of 0 to 100), Oat, Wild: 15
[11]; [16]
  Plant response rating, Oat, Wild: 70
[11]; [17]
  Plant response rating, Oat, Wild: 80
[11]; [18]
  Plant response rating, Oat, Wild: 85
[11]; [19]
  Plant response rating, Oat, Wild: 75
[12]; [13]
  Radish, Wild plant response rating: 50
[12]; [14]
  Plant response rating, Radish, Wild: 60
[12]; [15]
  Plant response rating, Radish, Wild: 85
[12]; Preemergence, 31 g ai/ha
  Plant response rating (scale of 0 to 100), Radish, Wild: 10
[12]; [16]
  Plant response rating, Radish, Wild: 15
[12]; [17]
  Plant response rating, Radish, Wild: 20
[12]; [18]
  Plant response rating, Radish, Wild: 25
[12]; [19]
  Plant response rating, Radish, Wild: 30
